Reference: PubChem BioAssay AID1259340 (Broad Institute, 2017)
Active and inactive are the calls of the source.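 Rule for the calls: active = AC50 no more than ten times the top concentration tested; inconclusive = flat fit with inhibition between 30% and 70%, or unusable fit; inactive = AC50 beyond ten times the top concentration.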

Target: Caspase recruitment domain-containing protein 9 (Homo sapiens) + B-cell lymphoma/leukemia 10 (Homo sapiens) (UniProt Q9H257+O95999)
Test: disruptors of CARD9-BCL10 binding, dose response, selectivity assay for CARD9-TRIM62 disruptor project, cell lysate, HEK293FT lysates, Luminex bead ELISA (AID 1259340)
Settings: not given

Sequence of Caspase recruitment domain-containing protein 9 (Homo sapiens) + B-cell lymphoma/leukemia 10 (Homo sapiens) (O95999 whole entry, looked up, the tested form may be a part): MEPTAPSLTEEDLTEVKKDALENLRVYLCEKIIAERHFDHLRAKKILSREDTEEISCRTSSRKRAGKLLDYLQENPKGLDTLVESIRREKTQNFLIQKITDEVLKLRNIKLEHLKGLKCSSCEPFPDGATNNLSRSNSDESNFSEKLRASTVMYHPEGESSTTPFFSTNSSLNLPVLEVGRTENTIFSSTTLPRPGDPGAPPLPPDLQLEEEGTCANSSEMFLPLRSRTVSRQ
Sequence of Caspase recruitment domain-containing protein 9 (Homo sapiens) + B-cell lymphoma/leukemia 10 (Homo sapiens) (Q9H257 whole entry, looked up, the tested form may be a part): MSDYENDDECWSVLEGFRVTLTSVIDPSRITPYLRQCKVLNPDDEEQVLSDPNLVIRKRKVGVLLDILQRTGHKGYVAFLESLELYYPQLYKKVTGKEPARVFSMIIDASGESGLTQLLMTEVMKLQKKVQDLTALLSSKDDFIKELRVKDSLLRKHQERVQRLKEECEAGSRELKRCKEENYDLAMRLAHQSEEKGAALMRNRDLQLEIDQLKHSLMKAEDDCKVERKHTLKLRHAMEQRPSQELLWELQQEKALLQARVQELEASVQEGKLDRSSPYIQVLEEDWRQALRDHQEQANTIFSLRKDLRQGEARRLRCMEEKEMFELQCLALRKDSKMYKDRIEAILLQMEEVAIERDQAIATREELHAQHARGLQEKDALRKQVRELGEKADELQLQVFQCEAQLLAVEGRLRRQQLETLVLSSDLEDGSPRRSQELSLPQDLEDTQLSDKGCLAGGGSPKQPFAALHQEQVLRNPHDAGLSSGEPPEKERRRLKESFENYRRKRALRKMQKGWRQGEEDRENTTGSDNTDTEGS

Structure (SMILES)	AC50
O=C1C=C(c2ccccc2)Nc2ccccc2N1	> 160 µM (inactive)
O=C(Nc1nc(-c2ccco2)c(-c2ccco2)s1)C1CCC1	> 160 µM (inactive)
NC(=O)c1ccc(CN2C(=O)C3(CCNCC3)Nc3ccccc32)cc1	> 160 µM (inactive)
O=C(COC(=O)c1cc(-c2cccs2)nc2ccccc12)NCc1ccco1	> 160 µM (inactive)
Cc1ccc(Nc2nc(C(=O)Nc3ccc(Cl)cc3)nc3ccccc23)cc1	> 160 µM (inactive)
Nc1ccc2ncccc2c1N	16.1 µM
COc1cccc(NC(=O)CN(C)C(=O)c2cc3c(s2)CCC3)c1	> 160 µM (inactive)
CCN1CCN(C(=O)c2cc(-c3ccco3)nc3ccccc23)CC1	> 160 µM (inactive)
Cc1ccc(-c2nnc(-c3nc(Nc4nc5ccccc5s4)c4ccccc4n3)o2)cc1	64 µM
CCOc1ccccc1NC(=O)N1CCCC(c2nccn2CCOC)C1 (stereo unspecified)	> 160 µM (inactive)
O=C(NC1CC1)c1cc(-c2ccco2)nc2ccccc12	> 160 µM (inactive)
C=CCNc1ncnc2c1CCN(C(=O)c1ccc(CSC)o1)CC2	> 160 µM (inactive)
O=C(NCC1CCCO1)c1cc(-c2ccco2)nc2ccccc12 (stereo unspecified)	> 160 µM (inactive)
C[C@H](CO)N1C[C@H](C)[C@@H](CN(C)CC2CCCCC2)OCCCC[C@H](C)Oc2ccc(NS(=O)(=O)c3ccc(F)cc3)cc2C1=O	> 160 µM (inactive)
CN(C)c1ccc(CN2C[C@H]3CC[C@@H]2CN(C(=O)c2ccncc2)C3)cn1	> 160 µM (inactive)
C=CC(=O)N1CCCC2(CCN(CCN3CCCC3)C2=O)C1 (stereo unspecified)	22.7 µM
Cc1ccc(-c2cc(C(=O)NCc3ccco3)c3ccccc3n2)o1	80.3 µM
CCc1ccc(Nc2nc(C(=O)NCc3ccc(N(C)C)cc3)nc3ccccc23)cc1	7.97 µM
C(=C\c1ccco1)/c1nc2ccccc2[nH]1	58.6 µM
COc1ccc(-n2c(C)c3c(OC)cccc(=O)c3c2C)cc1	> 160 µM (inactive)
COc1ccc2nc(-c3ccco3)c(-c3ccco3)nc2c1	39.2 µM
O=C(O)CCc1ccc(-c2cccs2)n1NC(=O)c1ccco1	> 160 µM (inactive)
Cc1ccc2cc(CN(Cc3ccco3)S(C)(=O)=O)c(=O)[nH]c2c1	> 160 µM (inactive)
O=C1CC2(CCN(C(=O)Nc3ccccc3)CC2)CN1Cc1ccc(Cl)cc1	79.7 µM
COc1ccc(-c2nnc(-c3nc(Nc4ccc(NC(C)=O)cc4)c4ccccc4n3)o2)cc1	64.5 µM
O=C(NC1(C(F)(F)F)Oc2ccc(Cl)cc2O1)N1CCC2(CC1)OCCO2 (stereo unspecified)	74.8 µM
O=C1CS/C(=N\N=C\c2ccco2)N1c1ccccc1	> 160 µM (inactive)
O=[N+]([O-])c1cccc(-c2nnc3ccc4ccccc4n23)c1	> 160 µM (inactive)
Cc1cccc2nc(CSCc3ccco3)cn12	> 160 µM (inactive)
CC(=O)c1sc2nc(-c3ccco3)ccc2c1N	26.1 µM

Same assay, conditions: at 80 µM (top of the series)

Structure (SMILES)	activity change, negative = inhibition
COc1ccc(-c2ccc(CCC(=O)O)o2)cc1	inactive
O=[N+]([O-])c1ccc2nn(Cc3ccccc3)cc2c1	inactive
c1cn(CCc2noc(C3CCCC3)n2)c(-c2cc3n(n2)CCCNC3)n1	inactive
Cc1cccc(Nc2nc(C(=O)Nc3cc(F)ccc3F)nc3ccccc23)c1	inactive
CCOC(=O)C1CCN(C(=O)CN(Cc2ccccc2)S(C)(=O)=O)CC1	inactive
CCCc1cc(C(=O)N2CC[C@H]3CNC[C@H]32)n(C)n1	inactive
O=C(NCCc1ccco1)c1ccc(OCc2cn3ccccc3n2)cc1	inactive
Cc1cncc(-c2ccc(S(N)(=O)=O)cc2F)c1	inactive
NC(=O)C1(N2CCCCC2)CCN(c2ncc(NC(=O)c3ccccc3)cc2C(=O)O)CC1	inactive
CCCN1CCCn2nc(CNC(=O)[C@H]3CC[C@@H](N)C3)cc2C1	inactive
CC(C)(C)c1ccc(-c2nc(C#N)c(NCc3ccncc3)o2)cc1	inactive
NC(=O)C1(N2CCCCC2)CCN(c2ncc(NC(=O)c3ccc(Cl)cc3)cc2C(=O)O)CC1	inactive
CCCc1oc(C(=O)O)cc1CN	inactive
Cc1ccc(S(=O)(=O)Cc2ccc(C(=O)N3CCC4(CC3)OCCO4)o2)cc1	inactive
Cc1cnc(C)c(N2CCN(C(=O)[C@H]3CC[C@@H](N)C3)CC2)n1	inactive
O=C(CN1CCOC1=O)N1CCC2(CCC(=O)N(CCCn3ccnc3)C2)CC1	inactive
NC(=O)C1(N2CCCCC2)CCN(c2ccc(NC(=O)c3cccc(Cl)c3)cc2C(=O)O)CC1	inactive
Cc1ccc(C(=O)Nc2ccc(N3CCC(C(N)=O)(N4CCCCC4)CC3)c(C(=O)O)c2)cc1	inactive
O=C(Nc1ccc(OCC(=O)N2CCOCC2)cc1)c1cncc(Br)c1	inactive
CCN1CCOC(=O)C1CC(=O)Nc1cccc(C)c1 (stereo unspecified)	inactive
O=c1/c(=C/c2ccco2)sc2nc3ccccc3n12	inactive

Structure (SMILES)	activity change, negative = inhibition
CCc1nccn1CCC(=O)N1C[C@H](CO)C[C@H](CN2CCCC2)C1	inactive
CC1(C)Cc2ccccc2-c2nc(-c3ccccc3)oc(=O)c21	inactive
Cc1ccc(N2C(=O)c3ccccc3C2C(=O)c2ccc(O)cc2O)cc1 (stereo unspecified)	inactive
O=C(Nc1nc(-c2nc3ccccc3s2)cs1)c1ccco1	inactive
CCc1nc(OCc2ccco2)c2sc3nc4c(cc3c2n1)COC(C)(C)C4	inactive
O=C(Nc1nnc(-c2ccco2)s1)c1ccccc1	inactive
COCC(=O)N1CCCC2(CCN(CCN3CCCC3)C2=O)C1 (stereo unspecified)	inactive
O=C(COC(=O)c1ccc(S(=O)(=O)NCc2ccco2)cc1)Nc1ccc(Cl)cn1	inactive
O=S(=O)(Nc1nc2ccc(S(=O)(=O)N3CCCCC3)cc2s1)c1ccccc1	inactive
Cc1ccc(N2NC(c3ccc(Br)cc3)=CCC2=O)cc1	inactive
O=C(Nc1nc(-c2ccco2)c(-c2ccco2)s1)c1ccco1	inactive
CC(C(=O)N1CCCC1)N1CCN(c2ccccc2O)CC1 (stereo unspecified)	inactive
CCn1ccnc1C1CCN(C(=O)CCn2c(C)nc3ccccc32)CC1	inactive
CC1=CCC(C(=O)O)C(C(=O)NC2CCCCC2)C1 (stereo unspecified)	inactive
O=S(=O)(Nc1nccs1)c1ccc(-n2cccc2)cc1	inactive
OCc1ccc(O)c2ncccc12	inactive
Cc1ccc(-c2nn(-c3ccccc3)cc2CN(Cc2ccccc2)C(=O)CCC(=O)O)o1	inactive
O=C(Cc1ccc(S(=O)(=O)N2CCOCC2)s1)Nc1nc2c(s1)CCCC2	inactive
COc1ccc(S(=O)(=O)c2ccccc2)cc1NS(=O)(=O)c1cccc(C(=O)O)c1	inactive
COC[C@]1(O)CCN(C(=O)CCN(C)S(C)(=O)=O)CC1(C)C	inactive
